Legend:
[1] = Gower A. J. et al., Eur. J. Pharmacol. (1992), 222, 193-203; cited from earlier work

SMILES | melting point | activity in the treatment of epilepsy (seizure control) [1]
COCc1nn2c(CN3CC(CC(F)(F)Cl)CC3=O)c(C(F)F)nc2s1 (single isomer, unassigned; (+)) [Compound 23, (+)-4-(2-chloro-2,2-difluoroethyl)-1-{[6-(difluoromethyl)-2-(methoxymethyl)imidazo[2,1-b][1,3,4]thiadiazol-5-yl]methyl}pyrrolidin-2-one] | 73 °C | –
O=C1C[C@H](CC(F)(F)Cl)CN1Cc1c(C(F)(F)F)nc2sc(CO)nn12 [Compound 8, (4R)-4-(2-chloro-2,2-difluoroethyl)-1-{[2-(hydroxymethyl)-6-(trifluoromethyl)imidazo[2,1-b][1,3,4]thiadiazol-5-yl]methyl}pyrrolidin-2-one] | 154 °C | –
COCc1nn2c(CN3CC(CC(C)(F)F)CC3=O)c(C(F)(F)F)nc2s1 (single isomer, unassigned; (-)) [Compound 3, (−)-4-(2,2-difluoropropyl)-1-{[2-(methoxymethyl)-6-(trifluoromethyl)imidazo[2,1-b][1,3,4]thiadiazol-5-yl]methyl}pyrrolidin-2-one] | 67 °C | –
COCc1nn2c(CN3C[C@H](CC(F)(F)F)CC3=O)c(C(F)(F)F)nc2s1 [Compound 12, (4S)-1-{[2-(methoxymethyl)-6-(trifluoromethyl)imidazo[2,1-b][1,3,4]thiadiazol-5-yl]methyl}-4-(2,2,2-trifluoroethyl)pyrrolidin-2-one] | 73 °C | –
COCc1nn2c(CN3C[C@@H](CC(F)(F)F)CC3=O)c(C(F)(F)F)nc2s1 [Compound 11, (4R)-1-{[2-(methoxymethyl)-6-(trifluoromethyl)imidazo[2,1-b][1,3,4]thiadiazol-5-yl]methyl}-4-(2,2,2-trifluoroethyl)pyrrolidin-2-one] | 72 °C | –
CC[C@H](C(N)=O)N1CCCC1=O [(R)-α-ethyl-2-oxo-1-pyrrolidine acetamide] | – | completely lacks activity
COCc1nn2c(CN3CC(CCC(F)(F)F)CC3=O)c(Cl)nc2s1 (single isomer, unassigned; (+)) [Compound 27, (+)-1-{[6-chloro-2-(methoxymethyl)imidazo[2,1-b][1,3,4]thiadiazol-5-yl]methyl}-4-(3,3,3-trifluoropropyl)pyrrolidin-2-one] | 60 °C | –
COCc1nn2c(CN3CC(CC(C)(F)F)CC3=O)c(C(F)(F)F)nc2s1 (single isomer, unassigned; (+)) [Compound 2, (+)-4-(2,2-difluoropropyl)-1-{[2-(methoxymethyl)-6-(trifluoromethyl)imidazo[2,1-b][1,3,4]thiadiazol-5-yl]methyl}pyrrolidin-2-one] | 70 °C | –
